# Measured values: patent US20200061092A1, “METHODS AND COMPOSITIONS FOR TREATING DISORDERS ASSOCIATED WITH MUSCLE WEAKNESS” (priority 2018, published 2020)
# Tests used:
# [1] = system: F-α-DG (functionally glycosylated α-DG); test: Western blot (IIH6C4) quantification and laminin overlay assay of muscle lysates from ribitol-treated P448L mice; format: in vivo, mouse; conditions: for F-α-DG by IIH6C4 western blot, % of normal (C57) levels: 6 months (FIG. 3c)
# Experimental: Ribitol was purchased from Sigma (A5502 Adonitol, ≥98%, Sigma, St. Louis) and dissolved in drinking water to the final concentration of 5% or 10%. […] mice aged at 4 weeks were treated with 5% ribitol drinking water for 1 month and […] mice aged at 7 weeks were treated with 5% ribitol drinking water for 3 months and 6 months. All the mice were randomly assigned to either treatment or control groups. And a minimum number of 4 mice were used for each group. No animal was excluded. […] female breeders were given 10% ribitol in drinking water during pregnancy, and pups continued to be treated with 10% ribitol in drinking water until they were euthanized at 19 weeks of age. Untreated age-matched […] and wild-type C57BL/6 mice were used as controls. The animals were terminated at the end of each treatment time point and tissues including heart, diaphragm, TA, quadriceps, liver, spleen and kidney were collected for analyses. For western blot analysis, tissues were homogenized in extraction buffer (50 mM Tris-HCl pH 8.0, 150 mM NaCl, and 1% Triton X-100), supplemented with 1× protease inhibitor cocktail (Sigma-Aldrich). Protein concentration was quantified by Bradford assay (Bio-Rad DC protein assay). Eighty μg of protein was loaded on a 4-15% Bio-Rad Mini-PROTEAN TGX gel (Bio-Rad) and immunoblotted. Amount of total protein loaded for C57 mice was half of the amount loaded for the […] mice. Nitrocellulose membranes (Bio-Rad) were blocked with 5% milk in 1×PBS for 2 hr at room temperature and then incubated with the following primary antibodies overnight at 4° C.: IIH6C4 (1:2000), AF6868 (R&D Systems) (1:1000) and α-actin (Sigma) (1:1000). Appropriate horseradish peroxidase (HRP)-conjugated secondary antibodies were incubated for 2 hr at room temperature. All blots were developed by electrochemiluminescence immunodetection (PerkinElmer). For IIH6C4 band quantification from western blot ImageJ software was used. For laminin overlay assay, nitrocellulose membranes were blocked with laminin overlay buffer (10 mM ethanolamine, 140 mM NaCl, 1 mM MgCl2, and 1 mM CaCl2, pH 7.4) containing 5% nonfat dry milk for 1 hr at 4° C. followed by incubation with laminin from Engelbreth-Holm-Swarm murine sarcoma basement membrane (L2020) (Sigma) at a concentration of 2 μg/ml overnight at 4° C. in laminin overlay buffer. Membranes were then incubated with rabbit anti-laminin antibody (Sigma) (1:1500) followed by goat anti-rabbit HRP-conjugated IgG secondary antibody (Santa Cruz Biotechnology) (1:3000). Blots were saturated with Western-Lightning Plus ECL (Perkin-Elmer) before exposure to and developing of GeneMate auto-radiographic film (VWR).
# FKRP P448L mutant mice [2] = test: Muscle function tests (treadmill exhaustion, grip strength) in P448L mice; format: in vivo, mouse
# Experimental: For treadmill exhaustion test, 17 and 30 weeks old mice were placed on the belt of a five-lane-motorized treadmill (LE8700 treadmill, Panlab/Harvard Apparatus, Barcelona, Spain) supplied with shock grids mounted at the back of the treadmill, which delivered a 0.2 mA current to provide motivation for exercise. Initially, the mice were subjected to an acclimation period (time, 5 min; speed, 8 cm/s, and 0° incline). Immediately after acclimation period, the test commenced with speed increases of 2 cm/s every minute until exhaustion. The test was stopped and the time to exhaustion was determined when the mouse remained on the shock grid for 5 s without attempting to re-engage the treadmill. For grip force test, forelimb and hindlimb in peak torque was measured by a grip strength meter (Columbus Instruments). For forelimb force, the animal was held so that only the forelimb paws grasp the specially designed mouse flat mesh assembly, and was pulled back from the tail until the grip was broken. The force transducer recorded the peak force reached when the animal's grip is broken. For hindlimb force, an angled mesh assembly was used. Mice were allowed to rest on the angled mesh assembly, facing away from the meter with its hindlimbs at least one-half of the way down the length of the mesh. The mouse tail was pulled directly toward the meter and parallel to the mesh assembly. During this procedure, the mice resist by grasping the mesh with all four limbs. Pulling toward the meter was continued until the hindlimbs released from the mesh assembly. Five successful hindlimb and forelimb force measurements within 2 minutes were recorded. The average value was used for analysis. Force was presented as values of KGF (kilogram-force) units normalized to bodyweights (gr) as “Units/gr”. The tests were performed 1 week before euthanasia.
# FKRP P448L mutant mice [3] = test: Histopathological and morphometric analysis (H&E, Masson's Trichrome) of muscles of P448L mice; format: in vivo, mouse
# Experimental: Ribitol was purchased from Sigma (A5502 Adonitol, ≥98%, Sigma, St. Louis) and dissolved in drinking water to the final concentration of 5% or 10%. […] mice aged at 4 weeks were treated with 5% ribitol drinking water for 1 month and […] mice aged at 7 weeks were treated with 5% ribitol drinking water for 3 months and 6 months. All the mice were randomly assigned to either treatment or control groups. And a minimum number of 4 mice were used for each group. No animal was excluded. […] female breeders were given 10% ribitol in drinking water during pregnancy, and pups continued to be treated with 10% ribitol in drinking water until they were euthanized at 19 weeks of age. Untreated age-matched […] and wild-type C57BL/6 mice were used as controls. The animals were terminated at the end of each treatment time point and tissues including heart, diaphragm, TA, quadriceps, liver, spleen and kidney were collected for analyses. Frozen tissues were processed for hematoxylin and eosin (H&E) and Masson's Trichrome staining following standard procedures. Muscle cross-sectional fiber equivalent diameter was determined from tibialis anterior and quadriceps stained with H&E using MetaMorph v7.7 Software (Molecular Devices). Percentage of centrally nucleated myofibers were manually quantified from the same tissue sections stained with H&E. Fibrotic area represented by blue staining in the Masson's Trichrome stained sections was quantified from heart, diaphragm, tibialis anterior and quadriceps using ImageJ software. For all the morphometric analyses, a total of 300 to 400 fibers from two representative 20× magnification images per each muscle per animal were used.
# [4] = system: muscular dystrophy caused by FKRP mutations; test: Ribitol/ribose supplementation in animal model of FKRP mutation muscular dystrophy; format: in vivo; conditions: supplement via drinking water
# [5] = 10% ribitol from pregnancy to 19 weeks
structure (smiles),measurement,setting,value
OC[C@@H](O)[C@@H](O)[C@@H](O)CO [ribitol],Functionality of glycosylated α-DG by laminin overlay assay,"[1]; 5% ribitol, 6 months",supported by laminin overlay assay
same,"F-α-DG by IIH6C4 western blot, % of normal (C57) levels","[1]; 5% ribitol, cardiac muscle",up to 14%
same,"F-α-DG by IIH6C4 western blot, % of normal (C57) levels","[1]; 5% ribitol, diaphragm",≤ 17%
same,Functionality of glycosylated α-DG by laminin overlay assay,[1]; [5],supported by laminin overlay assay
same,"F-α-DG by IIH6C4 western blot, % of normal levels","[1]; 10% ribitol from pregnancy to 19 weeks, diaphragm",18%
same,"F-α-DG by IIH6C4 western blot, % of normal levels","[1]; 10% ribitol from pregnancy to 19 weeks, heart",14%
same,"F-α-DG by IIH6C4 western blot, % of normal levels","[1]; 10% ribitol from pregnancy to 19 weeks, limb muscle",26%
same,Limb muscle function (treadmill exhaustion test),"FKRP P448L mutant mice [2]; 5% ribitol, 3 and 6 months",significant improvement in limb muscle function was not demonstrated
same,Treadmill running distance and time vs untreated,"FKRP P448L mutant mice [2]; 10% ribitol from pregnancy, 17 weeks of age",significantly longer
same,"Grip strength, forelimb force vs untreated","FKRP P448L mutant mice [2]; 10% ribitol from pregnancy, 18 weeks of age",significant improvement
same,Fibrotic area in cardiac muscle vs untreated,"FKRP P448L mutant mice [3]; 5% ribitol, 3 and 6 months",significant reduction
same,Number of fibers with small diameters (TA and quadriceps),"FKRP P448L mutant mice [3]; 5% ribitol, 3 and 6 months",statistically significant decrease
same,Percentage of CNF (TA and quadriceps) vs untreated,"FKRP P448L mutant mice [3]; 5% ribitol, 3 and 6 months",No significant difference
same,Areas of fibrotic tissue (Masson's Trichrome) vs untreated,"FKRP P448L mutant mice [3]; 5% ribitol, 3 and 6 months, limb muscles",significantly decreased
same,Fibrotic tissue in diaphragm (% of tissue cross-section area),"FKRP P448L mutant mice [3]; 5% ribitol, 3 month treatment",11%
same,Fibrotic tissue in diaphragm (% of tissue cross-section area),"FKRP P448L mutant mice [3]; 5% ribitol, 6 month treatment",18%
same,Centrally nucleated fibers (CNF) in TA vs untreated,FKRP P448L mutant mice [3]; [5],significantly fewer
same,Fibrosis in cardiac muscle and diaphragm,FKRP P448L mutant mice [3]; [5],"reduction in fibrosis was significant in cardiac muscle, and most prominent in the diaphragm"
same,Disease pathology of muscular dystrophy caused by FKRP mutations,[4],diminish disease pathology
